# How the values were obtained:
# [1] = system: FKBP-14.6; experiment: Competition binding against [^3 H]-dihydro FK-506 (LH-20 assay); design: species or system calf; details: for Kd: 6 nM [^3 H]-dihydro FK-506, rapamycin 0.1 nM-1 μM, 0.2% Tween-20, 50% receptor occupation
# Procedure: (§1) Binding of [^3 H]-dihydro FK-506 to protein fractions was assessed using the LH-20 assay as described by Handschumacher et al., Science, 226:544 (1984). Briefly, in a final volume of 250 μl, labeled FK-506 (2-5.35 nM in EtOH) and 2-5 μg protein (200 μl) were preliminarily incubated, and the competition reaction begun by the addition of varying concentrations of unlabeled FK-506 or rapamycin. Following 20 minutes at room temperature, a 200 μl aliquot of the reaction mixture was filtered through a 1.8 mL bed-volume Sephadex LH-20 column equilibrated with 20 mM Tris buffer, pH 7.2, containing 5 mM 2-mercaptoethanol and 0.05 % NAN3. Elution with five 250 μL portions of the assay buffer separated protein-bound [^3 H]-dihydro FK-506 from free labeled drug (Sjovall et al., in Giddlings et al., Advances in Chromatography, Marcel Dekker, Inc., N.Y., vol. 6, pp. 119-170 (1968)). Radioactivity in the 1.25 mL eluate was measured by liquid scintillation spectrometry (Optima Gold Scintillation cocktail, Packard Chemicals, Meriden, Conn.) operating at 59% efficiency. Non-specific binding was estimated by the addition of 1 μM unlabeled FK-506, which displaced ≥95% of the bound radioligand from binding sites.
# To determine if rapamycin interacted with FK-506's binding site on FKBP-14.6, competition studies were carried out using 6 nM [^3 H]-dihydro FK-506 and 8 concentrations of rapamycin (0.1 nM-1 μM) in a buffer containing 0.2% Tween-20. Unlabeled FK-506 (1 μM) was used to define nonspecific binding.
# [2] = biological target: FKBP-14.6; experiment: Saturation binding of [^3 H]-dihydro FK-506 (LH-20 assay, Scatchard and Hill plots); design: species or system calf; details: for Kd: saturation, eight concentrations of labeled FK-506 (0.25-12 nM), read-out: Kd, single high affinity binding site
# Procedure: as §1
# To obtain binding site information for the FKBP-14.6 protein, Scatchard plots were obtained in saturation experiments using eight concentrations of labeled FK-506 (0.25-12 nM) in triplicate (FIG. 4A). In FIG. 4A, specific binding is shown by (-.cndot.-.cndot.-) and non-specific binding by (- - -). Data were analyzed with the EBDA and Ligand Corporation programs.
structure (smiles),measurement,setting,value
CO[C@H]1C[C@@H]2CC[C@@H](C)[C@@](O)(O2)C(=O)C(=O)N2CCCC[C@H]2C(=O)O[C@H]([C@H](C)C[C@@H]2CC[C@@H](O)[C@H](OC)C2)CC(=O)[C@H](C)/C=C(\C)[C@@H](O)[C@@H](OC)C(=O)[C@H](C)C[C@H](C)/C=C/C=C/C=C/1C [Rapamycin],displacement of [^3 H]-dihydro FK-506 (manner),"[1]; 6 nM [^3 H]-dihydro FK-506, 8 concentrations of rapamycin",biphasic manner
same,Kd,"[1]; read-out: Kd, high affinity binding site",0.023 nM
same,Kd,"[1]; read-out: Kd, low affinity binding site",226 nM
CCC[C@@H]1/C=C(\C)C[C@H](C)C[C@H](OC)[C@H]2O[C@@](O)(C(=O)C(=O)N3CCCC[C@H]3C(=O)O[C@H](/C(C)=C/[C@@H]3CC[C@@H](O)[C@H](OC)C3)[C@H](C)[C@@H](O)CC1=O)[C@H](C)C[C@@H]2OC [[^3 H]-dihydro FK-506],Kd,"[2]; purified 14.6 kDa protein, listed as [^3 H]-FK-506",~1.77 nM
same,Kd,[2]; purified 14.6 kDa protein,1.77 nM
[3H]CC([3H])C[C@@H]1/C=C(\C)C[C@H](C)C[C@H](OC)[C@H]2O[C@@](O)(C(=O)C(=O)N3CCCC[C@H]3C(=O)O[C@H](/C(C)=C/[C@@H]3CC[C@@H](O)[C@H](OC)C3)[C@H](C)[C@@H](O)CC1=O)[C@H](C)C[C@@H]2OC (some centres unmarked) [[^3 H]-dihydro FK-506],Hill coefficients,"[2]; saturation experiments, single class of binding sites",near unity
C=CC[C@@H]1/C=C(\C)C[C@H](C)C[C@H](OC)[C@H]2O[C@@](O)(C(=O)C(=O)N3CCCC[C@H]3C(=O)O[C@H](/C(C)=C/[C@@H]3CC[C@@H](O)[C@H](OC)C3)[C@H](C)[C@@H](O)CC1=O)[C@H](C)C[C@@H]2OC [FK-506],bound radioligand displaced from binding sites,"[1]; 1 μM unlabeled FK-506, 20 min",≥ 95%
same,binding site Bmax,"[2]; Scatchard analysis, purified 14.6 kDa protein",about 67 nmoles/mg protein

# — patent US5525523A, “Binding method for FK-506- and rapamycin-like drugs with a novel immunophilin” (Children's Research Institute, priority 1994, dated 1996)
